Reference: patent publication US20230026856A1, “HETEROCYCLIC COMPOUNDS AND METHODS OF USE THEREOF” (SPARCBIO LLC, priority 2020, published 2023)

Each molecule was assayed against KRAS G12C protein (Homo sapiens, UniProt P01116, G12C) (assay: Nucleotide exchange assay, Method III (TR-FRET, association of KRAS G12C with Raf-RBD, SOS1-mediated exchange)). Settings: overnight (18 hr) incubation with GDP-bound KRAS G12C.
Assay type: biochemical
Method: Method III. Inhibition of SOS1-mediated exchange of GDP for GTP on the KRAS G12C protein was measured in a biochemical assay that monitors association of KRAS G12C protein with the Ras-binding domain of Raf (Raf-RBD), where the association is coupled to exchange of GDP to GTP on the KRAS G12C protein. The assay was performed at WuXi AppTec (Shanghai, China). Compounds were serially diluted in 3-fold dilutions to 11 concentrations and spotted into the wells of an assay plate in a total volume of 150 nL DMSO per well. A 2× enzyme mix was prepared by diluting GDP-bound, His-tagged KRAS G12C to 25 nM in assay buffer. 10 μL/well of 2× enzyme mix was added to all wells, and the plate was sealed and incubated overnight (18 hr) at 23° C. 4×SOS1/GDP and 4×SOS1/GTP were prepared in assay buffer. 5 μL/well of 4×SOS1/GDP mix was added to negative control wells, 5 μL/well of 4×SOS1/GTP mix was added to the remaining wells, and the plate was further incubated at 23° C. for 1 hr. Finally, FLAG-tagged Raf-RBD is added to the reaction mixture along with a pair of FRET donor- and acceptor-conjugated antibodies specific for the FLAG-tagged Raf-RBD and His-tagged KRAS G12C proteins. A 4× Raf-RBD/Tb-anti-FLAG/D2-anti-His mix was prepared in assay buffer, and 5 μL/well of the mix was added to all wells, followed by incubation at room temperature for 2 hr. The TR-FRET signals, which increase with association of KRAS G12C and Raf-RBD, were measured on a Perkin Elmer Envision 2104 plate reader, and data were analyzed by non-linear regression to obtain IC50 values for inhibition by compounds. Table 2 includes results of the assay of Method III. ‘+++’ indicates IC50 values ≤300 nM, ‘++’ indicates IC50 values between 300 nM-3 μM, and ‘+’ indicates IC50 values ≥3 μM.

Chain of KRAS G12C protein (P01116 1-188 isoform P01116-2 G12C): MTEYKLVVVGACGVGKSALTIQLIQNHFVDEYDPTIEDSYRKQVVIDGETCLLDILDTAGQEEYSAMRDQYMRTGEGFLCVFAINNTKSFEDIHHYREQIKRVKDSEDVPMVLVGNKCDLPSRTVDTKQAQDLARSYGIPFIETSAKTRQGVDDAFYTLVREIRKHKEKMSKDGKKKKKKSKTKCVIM

Q: How did the IC50 turn out when `C=CC(=O)N1CCN(c2c(S(C)(=O)=O)c(=O)n(-c3c(C)ccnc3C(C)C)c3c(F)c(-c4c(O)cccc4F)c(Cl)cc23)CC1` (single isomer, unassigned) [176 (Isomer C), 4-(4-acryloylpiperazin-1-yl)-6-chloro-8-fluoro-7-(2-fluoro-6-hydroxyphenyl)-1-(2-isopropyl-4-methylpyridin-3-yl)-3-(methylsulfonyl)quinolin-2(1H)-one] was run?
A: Its IC50 is 300 to 3000 nM.

Q: Which IC50 does the source give for `C=CC(=O)N1CCN(c2c(S(C)(=O)=O)c(=O)n(-c3c(C)ccnc3C(C)C)c3c(F)c(-c4c(C)ccc5[nH]ncc45)c(Cl)cc23)CC1` (single isomer, unassigned) [187 (Isomer A), 4-(4-acryloylpiperazin-1-yl)-6-chloro-8-fluoro-1-(2-isopropyl-4-methylpyridin-3-yl)-7-(5-methyl-1H-indazol-4-yl)-3-(methylsulfonyl)quinolin-2(1H)-one] here?
A: Its IC50 is 300 to 3000 nM.

Q: `C=CC(=O)N1CCN(c2c(S(C)(=O)=O)c(=O)n(-c3c(C)ccnc3C(C)C)c3nc(-c4c(O)cccc4F)c(F)cc23)[C@@H](C)C1` (single isomer, unassigned) [131 (Isomer B)] was tested. Which IC50 did it give?
A: Its IC50 is at least 3000 nM.

Q: `C=CC(=O)N1CCN(c2c(C(=O)NC)c(=O)n(-c3c(C)ccnc3C(C)C)c3nc(-c4c(O)cccc4F)c(F)cc23)C[C@@H]1CC#N` (single isomer, unassigned) [80 (Isomer B)] was tested. Which IC50 did it give?
A: The IC50 was 300 to 3000 nM.

Q: For `C=CC(=O)N1CCN(c2c(S(C)(=O)=O)c(=O)n(-c3c(C)ccnc3C(C)C)c3c(F)c(-c4cccc5sc(N)nc45)c(Cl)cc23)CC1` (single isomer, unassigned) [252 (Isomer B), 4-(4-acryloylpiperazin-1-yl)-7-(2-aminobenzo[d]thiazol-4-yl)-6-chloro-8-fluoro-1-(2-isopropyl-4-methylpyridin-3-yl)-3-(methylsulfonyl)quinolin-2(1H)-one], which IC50 is on record?
A: The IC50 was at most 300 nM.

Q: Which IC50 does the source give for `C=CC(=O)N1CCC(n2c(=O)c(=O)n(-c3c(C)ccnc3C(C)C)c3nc(-c4c(O)cccc4F)c(F)cc32)C[C@H]1C` (single isomer, unassigned) [2 (Isomer A)] here?
A: The IC50 was at least 3000 nM.

Q: For `C=CC(=O)N1CCC(c2c(C(=O)NC)c(=O)n(-c3c(C)ccnc3C(C)C)c3nc(-c4c(O)cccc4F)c(F)cc23)CC1` (single isomer, unassigned) [68 (Isomer A), 4-(1-acryloylpiperidin-4-yl)-6-fluoro-7-(2-fluoro-6-hydroxyphenyl)-1-(2-isopropyl-4-methylpyridin-3-yl)-N-methyl-2-oxo-1,2-dihydro-1,8-naphthyridine-3-carboxamide], which IC50 is on record?
A: The IC50 was 300 to 3000 nM.

Q: With `C=CC(=O)N1CCN(c2c(C(=O)NC)c(=O)n(-c3c(C)ccnc3C(C)C)c3nc(-c4c(C)ccc5[nH]ncc45)c(F)cc23)CC1` (single isomer, unassigned) [116 (Isomer B), 4-(4-acryloylpiperazin-1-yl)-6-fluoro-1-(2-isopropyl-4-methylpyridin-3-yl)-N-methyl-7-(5-methyl-1H-indazol-4-yl)-2-oxo-1,2-dihydro-1,8-naphthyridine-3-carboxamide] as the molecule, how does the IC50 read?
A: Its IC50 is 300 to 3000 nM.

Q: For `C=CC(=O)N1CCC(n2c(=O)c(=O)n(-c3c(C)ccnc3C(C)C)c3nc(-c4c(O)cccc4F)c(F)cc32)C(C)C1` (single isomer, unassigned) [294 (Isomer F), 1-(1-acryloyl-3-methylpiperidin-4-yl)-7-fluoro-6-(2-fluoro-6-hydroxyphenyl)-4-(2-isopropyl-4-methylpyridin-3-yl)-1,4-dihydropyrido[2,3-b]pyrazine-2,3-dione], which IC50 is on record?
A: The IC50 was 300 to 3000 nM.

Q: `C=CC(=O)N1CCN(c2c(S(C)(=O)=O)c(=O)n(-c3c(C)ccnc3C(C)C)c3c(F)c(-c4c(O)cccc4F)c(Cl)cc23)CC1` (single isomer, unassigned) [176 (Isomer B), 4-(4-acryloylpiperazin-1-yl)-6-chloro-8-fluoro-7-(2-fluoro-6-hydroxyphenyl)-1-(2-isopropyl-4-methylpyridin-3-yl)-3-(methylsulfonyl)quinolin-2(1H)-one] was tested. Which IC50 did it give?
A: Its IC50 is at most 300 nM.

Q: `C=CC(=O)N1CCC(n2c(=O)c(=O)n(-c3c(C)ccnc3C(C)C)c3nc(-c4c(O)cccc4F)c(F)cc32)C[C@@H]1C` (single isomer, unassigned) [4 (Isomer B)] was tested. Which IC50 did it give?
A: Its IC50 is at least 3000 nM.

Q: Which IC50 does the source give for `C=CC(=O)N1CCN(c2c(S(C)(=O)=O)c(=O)n(-c3c(C)ccnc3C(C)C)c3c(F)c(-c4cccc5sc(N)nc45)c(Cl)cc23)CC1` (single isomer, unassigned) [252 (Isomer C), 4-(4-acryloylpiperazin-1-yl)-7-(2-aminobenzo[d]thiazol-4-yl)-6-chloro-8-fluoro-1-(2-isopropyl-4-methylpyridin-3-yl)-3-(methylsulfonyl)quinolin-2(1H)-one] here?
A: Its IC50 is 300 to 3000 nM.

Q: `C=CC(=O)N1CCN(c2c(S(C)(=O)=O)c(=O)n(-c3c(C)ccnc3C(C)C)c3nc(-c4cccc5sc(N)nc45)c(F)cc23)C[C@H]1C` (single isomer, unassigned) [249 (Isomer B)] was tested. Which IC50 did it give?
A: The IC50 was 300 to 3000 nM.

Q: Which IC50 does the source give for `C=CC(=O)N1CCN(c2c(C(=O)NC)c(=O)n(-c3c(C)ccnc3C(C)C)c3nc(-c4c(C)ccc5[nH]ncc45)c(F)cc23)C[C@H]1C` (single isomer, unassigned) [114 (Isomer A)] here?
A: Its IC50 is 300 to 3000 nM.

Q: Which IC50 does the source give for `C=CC(=O)N1CCN(c2c(S(C)(=O)=O)c(=O)n(-c3c(C)ccnc3C(C)C)c3c(F)c(-c4cccc5sc(N)nc45)c(Cl)cc23)CC1` (single isomer, unassigned) [252 (Isomer A), 4-(4-acryloylpiperazin-1-yl)-7-(2-aminobenzo[d]thiazol-4-yl)-6-chloro-8-fluoro-1-(2-isopropyl-4-methylpyridin-3-yl)-3-(methylsulfonyl)quinolin-2(1H)-one] here?
A: Its IC50 is at most 300 nM.

Q: How did the IC50 turn out when `C=CC(=O)N1CCN(c2c(S(C)(=O)=O)c(=O)n(-c3c(C)ccnc3C(C)C)c3c(F)c(-c4c(C)ccc5[nH]ncc45)c(Cl)cc23)CC1` (single isomer, unassigned) [187 (Isomer B), 4-(4-acryloylpiperazin-1-yl)-6-chloro-8-fluoro-1-(2-isopropyl-4-methylpyridin-3-yl)-7-(5-methyl-1H-indazol-4-yl)-3-(methylsulfonyl)quinolin-2(1H)-one] was run?
A: Its IC50 is at most 300 nM.

Q: How did the IC50 turn out when `C=CC(=O)N1CCN(c2c(S(C)(=O)=O)c(=O)n(-c3c(C)ccnc3C(C)C)c3nc(-c4c(O)cccc4F)c(F)cc23)C[C@H]1C` (single isomer, unassigned) [143 (Isomer B)] was run?
A: Its IC50 is at most 300 nM.

Q: With `C=CC(=O)N1CCN(c2c(S(C)(=O)=O)c(=O)n(-c3c(C)ccnc3C(C)C)c3c(F)c(-c4c(C)ccc5[nH]ncc45)c(Cl)cc23)CC1` (single isomer, unassigned) [187 (Isomer D), 4-(4-acryloylpiperazin-1-yl)-6-chloro-8-fluoro-1-(2-isopropyl-4-methylpyridin-3-yl)-7-(5-methyl-1H-indazol-4-yl)-3-(methylsulfonyl)quinolin-2(1H)-one] as the molecule, how does the IC50 read?
A: Its IC50 is at least 3000 nM.

Q: `C=CC(=O)N1CCC(n2c(=O)c(=O)n(-c3c(C)ccnc3C(C)C)c3nc(-c4c(O)cccc4F)c(F)cc32)C(C)C1` (single isomer, unassigned) [294 (Isomer A), 1-(1-acryloyl-3-methylpiperidin-4-yl)-7-fluoro-6-(2-fluoro-6-hydroxyphenyl)-4-(2-isopropyl-4-methylpyridin-3-yl)-1,4-dihydropyrido[2,3-b]pyrazine-2,3-dione] was tested. Which IC50 did it give?
A: Its IC50 is at least 3000 nM.
